Assay results reported in patent US20230212549A1, “COMPOUNDS COMPRISING A […] LIGAND AND USE THEREOF” (priority 2021, published 2023).
Each block holds one compound with its values, some of them ahead of it. Numbered stars: 1 amine (or outer) side, 2 acyl side, 3 side chain; on linkers, the order of the positions; unused ones are H or OH. Bridge positions count the residues as written; N and C are the ends. Square brackets hold non-standard residues; d marks the D form. Peptide text beside a SMILES is read from it. * marks the point of attachment. X13 = O=C(O)CN1CCN(CC(=O)O)CCN(CC(=O)N2CCN(Cc3cc(C[*:1])cc(C[*:2])c3)CC2)CCN(CC(=O)O)CC1; X12 = O=C(O)CN1CCN(CC(=O)O)CCN(CC(=O)NCCCOCCOCCOCCCN*)CCN(CC(=O)O)CC1; mXylylene = c1cc(C[*:1])cc(C[*:2])c1; Suc = O=C(CCC(=O)[*:2])[*:1]; Nle = CCCC[C@H](N)C(=O)O; Hexanoyl = CCCCCC(=O)*

Tests used:
[1] = Plasma stability assay, mouse plasma; assay type: in vitro ADME; conditions: 37° C.
[2] = molecular target: T1, FAP-expressing human WI-38 fibroblasts (Homo sapiens, UniProt Q12884); assay: Competitive FACS binding assay
T1 construct: FAP-expressing human WI-38 fibroblasts (ECACC) were cultured in EMEM; host or cells: WI-38 human fibroblasts
Procedure: Cells were analyzed in an Attune NxT flow cytometer. […] […].
Cells were analyzed in an Attune NxT flow cytometer. […]

Recombinant human DPP4 = molecular target: T2, Recombinant human DPP4 (Homo sapiens, UniProt P27487); assay: DPP4 protease activity assay; assay type: biochemical
T2 construct: purchased R&D systems 9168-SE

Human recombinant FAP [3] = molecular target: T3, Human recombinant FAP (Homo sapiens, UniProt Q12884); assay: Surface plasmon resonance (Biacore) assay; assay type: binding
Human recombinant FAP [4] = molecular target: T3, Human recombinant FAP; assay: FRET-based FAP protease activity assay; assay type: biochemical; parameters: purchased R&D systems 3715-SE
recombinant human PREP = molecular target: T4, recombinant human PREP (Homo sapiens, UniProt P48147); assay: PREP protease activity assay; assay type: biochemical
T4 construct: purchased R&D systems 4308-SE
T4 sequence (P48147 1-710): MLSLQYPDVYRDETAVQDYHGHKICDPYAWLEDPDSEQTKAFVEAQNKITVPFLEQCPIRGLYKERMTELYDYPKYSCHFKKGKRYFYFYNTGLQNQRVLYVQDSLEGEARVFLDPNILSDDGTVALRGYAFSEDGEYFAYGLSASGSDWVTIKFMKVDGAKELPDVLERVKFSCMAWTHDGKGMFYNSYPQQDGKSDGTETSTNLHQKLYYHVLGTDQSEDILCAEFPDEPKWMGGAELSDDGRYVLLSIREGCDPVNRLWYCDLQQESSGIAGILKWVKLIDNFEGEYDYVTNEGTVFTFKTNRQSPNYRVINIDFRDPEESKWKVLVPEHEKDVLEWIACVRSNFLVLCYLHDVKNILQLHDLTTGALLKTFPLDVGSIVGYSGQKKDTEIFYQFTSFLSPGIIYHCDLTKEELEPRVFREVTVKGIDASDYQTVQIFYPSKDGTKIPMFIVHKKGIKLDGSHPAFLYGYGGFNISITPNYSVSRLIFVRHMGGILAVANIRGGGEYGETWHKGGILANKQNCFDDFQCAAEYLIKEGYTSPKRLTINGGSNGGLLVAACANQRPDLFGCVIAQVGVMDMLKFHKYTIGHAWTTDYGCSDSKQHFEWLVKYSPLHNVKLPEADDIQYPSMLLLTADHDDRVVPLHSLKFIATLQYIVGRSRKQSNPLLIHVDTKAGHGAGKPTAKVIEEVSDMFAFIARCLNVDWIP

[5] = 24 h incubation, 37° C.
[6] = 24 h incubation, 37° C.; remark: listed apart in the source
[7] = Pharmacokinetic study in mice (plasma, NCA); conditions: mouse, intravenous; for Vd: mouse plasma
[8] = Pharmacokinetic study in rats (plasma, NCA); conditions: rat, intravenous; for Vd: rat plasma
[9] = molecular target: Ca2+ channel (L, dihydropyridine site) (Rattus norvegicus, UniProt P22002); assay: biochemical; conditions: read-out: % Inhibition of Specific Binding
[10] = pIC50 Category (Activity), FRET-based FAP protease activity assay, recombinant human FAP, 37° C.

T3 sequence (Q12884 whole entry): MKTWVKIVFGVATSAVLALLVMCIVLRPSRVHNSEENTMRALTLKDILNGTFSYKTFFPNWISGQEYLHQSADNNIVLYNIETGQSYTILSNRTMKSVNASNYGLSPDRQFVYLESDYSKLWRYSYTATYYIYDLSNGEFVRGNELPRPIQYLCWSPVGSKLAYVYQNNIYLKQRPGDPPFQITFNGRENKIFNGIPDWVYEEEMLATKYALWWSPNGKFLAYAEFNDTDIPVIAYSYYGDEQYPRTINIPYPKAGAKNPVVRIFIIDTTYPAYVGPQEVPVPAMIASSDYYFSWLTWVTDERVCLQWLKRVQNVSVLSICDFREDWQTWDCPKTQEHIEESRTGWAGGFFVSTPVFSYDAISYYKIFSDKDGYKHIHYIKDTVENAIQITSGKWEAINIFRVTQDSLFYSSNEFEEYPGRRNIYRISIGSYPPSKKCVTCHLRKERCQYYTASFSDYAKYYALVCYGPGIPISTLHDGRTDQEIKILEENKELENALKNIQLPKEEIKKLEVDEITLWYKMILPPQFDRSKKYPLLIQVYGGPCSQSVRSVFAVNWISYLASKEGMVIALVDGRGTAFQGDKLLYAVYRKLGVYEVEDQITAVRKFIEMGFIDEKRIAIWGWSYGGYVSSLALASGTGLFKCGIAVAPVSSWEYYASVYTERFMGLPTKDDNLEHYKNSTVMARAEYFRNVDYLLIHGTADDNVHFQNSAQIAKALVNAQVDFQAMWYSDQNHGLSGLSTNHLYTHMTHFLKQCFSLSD
T2 sequence (P27487 whole entry): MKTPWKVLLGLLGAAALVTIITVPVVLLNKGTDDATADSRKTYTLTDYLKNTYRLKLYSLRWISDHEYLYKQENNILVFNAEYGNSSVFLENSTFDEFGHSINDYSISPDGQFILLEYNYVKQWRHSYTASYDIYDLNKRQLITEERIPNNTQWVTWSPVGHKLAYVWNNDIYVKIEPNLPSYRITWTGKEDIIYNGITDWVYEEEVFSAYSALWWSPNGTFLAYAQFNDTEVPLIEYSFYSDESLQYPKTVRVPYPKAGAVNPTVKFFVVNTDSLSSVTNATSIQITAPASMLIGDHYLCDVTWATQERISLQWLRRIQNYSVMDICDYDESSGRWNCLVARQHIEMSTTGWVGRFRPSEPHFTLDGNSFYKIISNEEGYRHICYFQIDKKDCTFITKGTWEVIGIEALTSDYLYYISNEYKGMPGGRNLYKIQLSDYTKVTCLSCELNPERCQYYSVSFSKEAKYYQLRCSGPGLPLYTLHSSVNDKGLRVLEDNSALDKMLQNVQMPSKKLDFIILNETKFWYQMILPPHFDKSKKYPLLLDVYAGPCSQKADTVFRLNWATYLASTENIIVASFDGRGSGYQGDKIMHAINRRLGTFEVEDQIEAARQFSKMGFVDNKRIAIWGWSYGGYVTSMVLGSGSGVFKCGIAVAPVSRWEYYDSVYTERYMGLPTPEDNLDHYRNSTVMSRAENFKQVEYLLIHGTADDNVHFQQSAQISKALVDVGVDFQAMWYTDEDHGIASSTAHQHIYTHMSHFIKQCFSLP
T1 sequence (Q12884 whole entry): as the sequence (Q12884 whole entry) above
Sequence of Ca2+ channel (L, dihydropyridine site) (P22002 whole entry): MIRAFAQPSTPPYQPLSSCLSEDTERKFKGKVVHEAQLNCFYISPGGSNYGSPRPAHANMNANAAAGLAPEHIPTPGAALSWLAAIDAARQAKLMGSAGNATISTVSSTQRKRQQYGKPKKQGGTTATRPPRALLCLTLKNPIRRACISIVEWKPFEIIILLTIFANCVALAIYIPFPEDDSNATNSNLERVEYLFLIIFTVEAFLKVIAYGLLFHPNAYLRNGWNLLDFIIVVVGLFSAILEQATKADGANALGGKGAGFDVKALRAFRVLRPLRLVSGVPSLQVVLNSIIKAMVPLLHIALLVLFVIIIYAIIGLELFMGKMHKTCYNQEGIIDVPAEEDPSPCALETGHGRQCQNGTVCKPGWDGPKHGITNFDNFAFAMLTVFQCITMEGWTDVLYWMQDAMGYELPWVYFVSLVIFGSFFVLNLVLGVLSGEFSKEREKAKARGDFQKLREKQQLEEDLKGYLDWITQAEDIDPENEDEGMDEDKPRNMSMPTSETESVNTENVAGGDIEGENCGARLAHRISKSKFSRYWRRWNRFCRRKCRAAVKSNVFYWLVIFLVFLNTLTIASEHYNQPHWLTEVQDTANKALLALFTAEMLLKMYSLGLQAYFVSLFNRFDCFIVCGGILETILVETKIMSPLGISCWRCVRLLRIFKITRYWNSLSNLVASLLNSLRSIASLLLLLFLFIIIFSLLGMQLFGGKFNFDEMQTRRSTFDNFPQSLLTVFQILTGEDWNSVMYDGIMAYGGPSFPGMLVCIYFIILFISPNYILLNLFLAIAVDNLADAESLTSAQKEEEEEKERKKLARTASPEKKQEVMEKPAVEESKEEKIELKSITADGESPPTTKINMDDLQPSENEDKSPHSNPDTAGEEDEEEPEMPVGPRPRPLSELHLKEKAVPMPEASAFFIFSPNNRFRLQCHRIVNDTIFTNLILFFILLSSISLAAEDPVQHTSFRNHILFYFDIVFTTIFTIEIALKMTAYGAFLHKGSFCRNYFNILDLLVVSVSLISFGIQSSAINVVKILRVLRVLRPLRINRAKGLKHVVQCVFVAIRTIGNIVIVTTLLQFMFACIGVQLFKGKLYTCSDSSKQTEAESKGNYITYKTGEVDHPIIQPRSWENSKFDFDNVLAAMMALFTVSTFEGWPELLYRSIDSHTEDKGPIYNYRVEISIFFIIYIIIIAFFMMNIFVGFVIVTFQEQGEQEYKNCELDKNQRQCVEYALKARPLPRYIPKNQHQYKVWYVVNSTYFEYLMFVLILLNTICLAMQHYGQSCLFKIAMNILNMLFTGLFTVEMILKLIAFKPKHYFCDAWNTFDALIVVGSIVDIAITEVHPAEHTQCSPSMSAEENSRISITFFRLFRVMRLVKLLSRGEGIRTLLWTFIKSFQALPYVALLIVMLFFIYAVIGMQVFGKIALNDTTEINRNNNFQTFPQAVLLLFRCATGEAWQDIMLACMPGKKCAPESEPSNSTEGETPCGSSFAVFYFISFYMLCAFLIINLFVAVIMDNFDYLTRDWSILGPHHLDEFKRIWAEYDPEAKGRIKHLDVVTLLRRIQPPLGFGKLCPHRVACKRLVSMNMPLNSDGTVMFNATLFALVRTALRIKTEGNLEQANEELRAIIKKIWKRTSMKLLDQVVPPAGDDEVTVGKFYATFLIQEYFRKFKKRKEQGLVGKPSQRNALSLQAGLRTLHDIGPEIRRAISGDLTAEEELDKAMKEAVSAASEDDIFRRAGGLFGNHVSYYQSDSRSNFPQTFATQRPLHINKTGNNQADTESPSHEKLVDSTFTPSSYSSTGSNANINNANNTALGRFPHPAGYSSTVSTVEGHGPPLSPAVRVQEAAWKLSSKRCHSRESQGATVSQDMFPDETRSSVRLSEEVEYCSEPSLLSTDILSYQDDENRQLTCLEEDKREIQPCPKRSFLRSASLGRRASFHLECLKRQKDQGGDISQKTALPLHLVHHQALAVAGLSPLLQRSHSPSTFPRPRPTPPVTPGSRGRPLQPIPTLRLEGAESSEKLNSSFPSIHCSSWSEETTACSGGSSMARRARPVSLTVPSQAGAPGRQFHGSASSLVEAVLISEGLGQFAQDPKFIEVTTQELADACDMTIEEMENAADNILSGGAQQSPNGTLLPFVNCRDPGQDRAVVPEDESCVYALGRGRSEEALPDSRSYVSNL

remaining at 4 h, 9.8 µM ([1]; mouse, plasma, 4 h incubation, read-out: % intact compound remaining after incubation, Mouse plasma): 100%
IC50 [2]: < 10 nM
IC50 (Recombinant human DPP4): > 1000 nM
Kd (Human recombinant FAP [3]): < 10 nM
IC50 (Human recombinant FAP [4]; pIC50 (highest activity categories), text on Table 9 categories (FACS binding and FAP activity assay)): < 10 nM
IC50 (Human recombinant FAP [4]; [10]): < 10 nM
IC50 (recombinant human PREP): > 1000 nM
SMILES: CCCC[C@H](NC(=O)CCC(=O)NCCCOCCOCCOCCCNC(=O)CN1CCN(CC(=O)O)CCN(CC(=O)O)CCN(CC(=O)O)CC1)C(=O)N[C@H]1CSCc2cccc(c2)CSC[C@@H](C(=O)N[C@@H](CC(=O)O)C(=O)N[C@@H](Cc2c[nH]cn2)C(=O)N[C@@H](Cc2ccccc2)C(=O)N[C@@H](CCCNC(=N)N)C(=O)N[C@@H](CC(=O)O)C(N)=O)NC(=O)[C@H](Cc2ccccc2)NC(=O)[C@H](CCC(=O)O)NC(=O)[C@H]([C@@H](C)O)NC(=O)[C@@H]2CCCN2C(=O)[C@@H]2CCCN2C1=O [3BP-3168, DOTA-Ttds-Nle-[Cys(3MeBn)-Pro-Pro-Thr-Glu-Phe-Cys]-Asp-His-Phe-Arg-Asp-NH2] ({X12-Suc}-[Nle]CPPTEFCDHFRD-NH2; linker 2-8 via mXylylene)

SMILES: CCCCCC(=O)N[C@H]1CSCc2cc(cc(CN3CCN(C(=O)CN4CCN(CC(=O)O)CCN(CC(=O)O)CCN(CC(=O)O)CC4)CC3)c2)CSC[C@@H](C(=O)N[C@@H](CC(=O)O)C(N)=O)NC(=O)[C@H](Cc2ccccc2)NC(=O)[C@H](CCC(N)=O)NC(=O)[C@H]([C@@H](C)O)NC(=O)[C@@H]2CCCN2C(=O)[C@@H]2CCCN2C1=O [3BP-3590, Hex-[Cys(tMeBn(InDOTA-PP))-Pro-Pro-Thr-Gln-Phe-Cys]-Asp-NH2] (Hexanoyl-CPPTQFCD-NH2; linker 1-7 via X13)
% intact compound remaining after incubation, Human plasma [5]: 94% (24 h)
% intact compound remaining after incubation, Rat plasma [6]: 100% (24 h)
remaining at 24 h, 9.8 µM ([1]; mouse, plasma, 24 h incubation, read-out: % intact compound remaining after incubation, Mouse plasma): 100%

SMILES: CCCCCC(=O)N[C@H]1CSCc2cc(CSCCNC(=O)CN3CCN(CC(=O)O)CCN(CC(=O)O)CCN(CC(=O)O)CC3)cc(c2)CSC[C@@H](C(=O)O)NC(=O)[C@H](Cc2ccccc2)NC(=O)[C@H](CCC(N)=O)NC(=O)[C@H]([C@@H](C)O)NC(=O)[C@@H]2CCCN2C(=O)[C@@H]2CCCN2C1=O [3BP-3623, Hex-[Cys(tMeBn(InDOTA-AET))-Pro-Pro-Thr-Gln-Phe-Cys]-OH]
AUC(0-inf) ([7]; 4 nmol/kg): 0.0077 µM·h
C0 ([7]; 4 nmol/kg): 17.6 nM
clearance ([7]; 4 nmol/kg): 8.63 mL/min/kg
half-life ([7]; 4 nmol/kg): 35 min
Vd ([7]; 4 nmol/kg, Vss, 4 nmol/kg): 0.36 L/kg
Vd ([7]; 4 nmol/kg, Vz): 0.44 L/kg
AUC(0-inf) ([7]; 40 nmol/kg): 0.055 µM·h
C0 ([7]; 40 nmol/kg): 228 nM
clearance ([7]; 40 nmol/kg): 12 mL/min/kg
half-life ([7]; 40 nmol/kg): 30 min
Vd ([7]; 40 nmol/kg, Vss, 40 nmol/kg): 0.31 L/kg
Vd ([7]; 40 nmol/kg, Vz): 0.53 L/kg
AUC(0-inf) ([7]; 400 nmol/kg): 0.532 µM·h
C0 ([7]; 400 nmol/kg): 2130 nM
clearance ([7]; 400 nmol/kg): 12.5 mL/min/kg
half-life ([7]; 400 nmol/kg): 35 min
Vd ([7]; 400 nmol/kg, Vss, 400 nmol/kg): 0.2 L/kg
Vd ([7]; 400 nmol/kg, Vz): 0.64 L/kg
% intact compound remaining after incubation, Human plasma [5]: 100% (24 h)
% intact compound remaining after incubation, Rat plasma [6]: 100% (24 h)
AUC(0-inf) ([8]; 40 nmol/kg): 0.074 µM·h
C0 ([8]; 40 nmol/kg): 127 nM
clearance ([8]; 40 nmol/kg): 9.02 mL/min/kg
half-life ([8]; 40 nmol/kg): 45 min
Vd ([8]; 40 nmol/kg, Vss, 40 nmol/kg): 0.48 L/kg
Vd ([8]; 40 nmol/kg, Vz): 0.58 L/kg
AUC(0-inf) ([8]; 400 nmol/kg): 0.738 µM·h
C0 ([8]; 400 nmol/kg): 1410 nM
clearance ([8]; 400 nmol/kg): 9.03 mL/min/kg
half-life ([8]; 400 nmol/kg): 71 min
Vd ([8]; 400 nmol/kg, Vz): 0.93 L/kg

SMILES: CCCCCC(=O)N[C@H]1CSCc2cc(cc(CN3CCN(C(=O)CN4CCN(CC(=O)O)CCN(CC(=O)O)CCN(CC(=O)O)CC4)CC3)c2)CSC[C@@H](C(=O)N[C@@H](CC(=O)O)C(N)=O)NC(=O)[C@H](Cc2ccccc2)NC(=O)[C@H](CCC(N)=O)NC(=O)[C@H]([C@@H](C)O)NC(=O)[C@@H]2CCCN2C(=O)[C@@H]2CCCN2C1=O [3BP-3407, Hex-[Cys(tMeBn(DOTA-PP))-Pro-Pro-Thr-Gln-Phe-Cys]-Asp-NH2] (Hexanoyl-CPPTQFCD-NH2; linker 1-7 via X13)
% intact compound remaining after incubation, Human plasma [5]: 100% (24 h)
% intact compound remaining after incubation, Rat plasma [6]: 100% (24 h)
inhibition at 10 µM [9]: 42%

% intact compound remaining after incubation, Mouse plasma ([1]; 4 h incubation): 75%
IC50 [2]: 10 to 79.4 nM
IC50 (Recombinant human DPP4): > 1000 nM
Kd (Human recombinant FAP [3]): < 10 nM
IC50 (Human recombinant FAP [4]; [10]): < 10 nM
IC50 (recombinant human PREP): > 1000 nM
SMILES: CCCC[C@H](NC(=O)CCC(=O)NCCCOCCOCCOCCCNC(=O)CN1CCN(CC(=O)O)CCN(CC(=O)O)CCN(CC(=O)O)CC1)C(=O)N[C@H]1CSCc2cccc(c2)CSC[C@@H](C(=O)N[C@@H](CC(=O)O)C(N)=O)NC(=O)[C@H](Cc2ccccc2)NC(=O)[C@H](CCC(=O)O)NC(=O)[C@H]([C@@H](C)O)NC(=O)[C@@H]2CCCN2C(=O)[C@@H]2CCCN2C1=O [3BP-3320, DOTA-Ttds-Nle-[Cys(3MeBn)-Pro-Pro-Thr-Glu-Phe-Cys]-Asp-NH2] ({X12-Suc}-[Nle]CPPTEFCD-NH2; linker 2-8 via mXylylene)
